In ChEMBL document CHEMBL1201862, “PubChem BioAssay data set” (2004):
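These data come from cells grown in 96-well plates and exposed to compound for 48 hours at five concentrations. At the GI50, growth is halved.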 The source made the active and inactive calls. Rule as the data show it: active = GI50 up to about 1.1 µM and inactive = higher.

Tests used:
Assay in all cases: DTP human tumour cell line panel, 48 h
786-0 = tested on: 786-0
CAKI-1 = tested on: CAKI-1
CCRF-CEM = tested on: CCRF-CEM
EKVX = tested on: EKVX
IGROV-1 = tested on: IGROV-1
LOX IMVI = tested on: LOX IMVI
NCI-H522 = tested on: NCI-H522
OVCAR-3 = tested on: OVCAR-3
OVCAR-5 = tested on: OVCAR-5
RPMI-8226 = tested on: RPMI-8226
SF-268 = tested on: SF-268
SF-539 = tested on: SF-539
SNB-75 = tested on: SNB-75
TK-10 = tested on: TK-10
U-251 = tested on: U-251
HCT-116 = tested on: HCT-116
SR = tested on: SR

Structure (SMILES) | GI50 (786-0) | GI50 (CAKI-1) | GI50 (CCRF-CEM) | GI50 (EKVX) | GI50 (IGROV-1) | GI50 (LOX IMVI) | GI50 (NCI-H522) | GI50 (OVCAR-3) | GI50 (OVCAR-5) | GI50 (RPMI-8226) | GI50 (SF-268) | GI50 (SF-539) | GI50 (SNB-75) | GI50 (TK-10) | GI50 (U-251) | GI50 (HCT-116) | GI50 (SR)
COc1ccc2c(c1)[n+]([O-])c(-c1ccccc1)c(N)[n+]2[O-] | 63.2 µM (inactive) | 37.2 µM (inactive) | 53 µM (inactive) | 43.8 µM (inactive) | 43.4 µM (inactive) | 44.1 µM (inactive) | 17.1 µM (inactive) | 39.8 µM (inactive) | 94 µM (inactive) | 77.1 µM (inactive) | 30.5 µM (inactive) | 32.4 µM (inactive) | > 100 µM (inactive) | > 100 µM (inactive) | 31.3 µM (inactive) | – | –
C/C(=N\NC(=O)c1ccccc1O)c1c(O)cc(C)oc1=O | > 100 µM (inactive) | – | > 10 µM (inactive) | 29.9 µM (inactive) | 34.2 µM (inactive) | 76 µM (inactive) | 32.7 µM (inactive) | 41.2 µM (inactive) | 73.3 µM (inactive) | 50.4 µM (inactive) | 49.4 µM (inactive) | 62.8 µM (inactive) | 20.2 µM (inactive) | > 100 µM (inactive) | 37.7 µM (inactive) | 49.4 µM (inactive) | –
CC1OC(n2cc(I)c(=O)[nH]c2=O)C=CC1=O (stereo not given) | 14 µM (inactive) | 16 µM (inactive) | 2.43 µM (inactive) | 17.5 µM (inactive) | 20.4 µM (inactive) | 6.47 µM (inactive) | – | 17.5 µM (inactive) | 25 µM (inactive) | 13.9 µM (inactive) | 14.1 µM (inactive) | 14.1 µM (inactive) | 17.2 µM (inactive) | 18.6 µM (inactive) | 14.4 µM (inactive) | 11.8 µM (inactive) | 12.6 µM (inactive)
NC(=O)NNC/C(Cl)=C(\Cl)C(=O)O | > 100 µM (inactive) | > 100 µM (inactive) | > 100 µM (inactive) | > 100 µM (inactive) | > 100 µM (inactive) | > 100 µM (inactive) | > 100 µM (inactive) | > 100 µM (inactive) | > 100 µM (inactive) | > 100 µM (inactive) | > 100 µM (inactive) | > 100 µM (inactive) | < 0.01 µM (active) | > 100 µM (inactive) | > 100 µM (inactive) | > 100 µM (inactive) | –
Cc1ccc(-c2c(N)[n+]([O-])c3ccccc3[n+]2[O-])cc1 | 13.5 µM (inactive) | 3.81 µM (inactive) | 47.4 µM (inactive) | 23.4 µM (inactive) | 14.9 µM (inactive) | 11 µM (inactive) | 1.55 µM (inactive) | 16 µM (inactive) | 17.9 µM (inactive) | 21.4 µM (inactive) | 16.9 µM (inactive) | 11 µM (inactive) | 12.2 µM (inactive) | 18.4 µM (inactive) | 14.3 µM (inactive) | – | –
COC(=O)CC(CC(=O)C(=O)OC)C(=O)OC (stereo not given) | > 100 µM (inactive) | > 100 µM (inactive) | > 100 µM (inactive) | > 100 µM (inactive) | > 100 µM (inactive) | > 100 µM (inactive) | – | > 100 µM (inactive) | > 100 µM (inactive) | > 100 µM (inactive) | – | > 100 µM (inactive) | > 100 µM (inactive) | > 100 µM (inactive) | > 100 µM (inactive) | > 100 µM (inactive) | –
COc1cc2c(cc1O)[C@H](C)C(c1ccc(Cl)cc1)O2 (stereo not given in full) | 17.1 µM (inactive) | 11.6 µM (inactive) | 14.5 µM (inactive) | 23 µM (inactive) | 22.5 µM (inactive) | 16 µM (inactive) | 13.3 µM (inactive) | 37.4 µM (inactive) | 25.4 µM (inactive) | 6.34 µM (inactive) | 20.7 µM (inactive) | 57.9 µM (inactive) | 2.72 µM (inactive) | 24.4 µM (inactive) | 19.1 µM (inactive) | 16.1 µM (inactive) | –
c1ccc(CCCC2Sc3cccc4cccc(c34)S2)cc1 | > 100 µM (inactive) | > 100 µM (inactive) | > 100 µM (inactive) | > 100 µM (inactive) | > 100 µM (inactive) | > 100 µM (inactive) | 92.7 µM (inactive) | > 100 µM (inactive) | > 100 µM (inactive) | 52.7 µM (inactive) | > 100 µM (inactive) | > 100 µM (inactive) | > 100 µM (inactive) | > 100 µM (inactive) | > 100 µM (inactive) | > 100 µM (inactive) | –
COC(=O)C1=CC2OC13CC1CCC3(C2=O)C1(C)C (stereo not given) | 12.2 µM (inactive) | 2.2 µM (inactive) | 3.25 µM (inactive) | > 10 µM (inactive) | 16.7 µM (inactive) | – | 2.34 µM (inactive) | 5.89 µM (inactive) | 19 µM (inactive) | 15.1 µM (inactive) | 10 µM (inactive) | 14.2 µM (inactive) | 7.01 µM (inactive) | 10.4 µM (inactive) | 12.9 µM (inactive) | 11.4 µM (inactive) | –
CCOC(=O)C1(c2ccccc2)CCC(=O)CC1 | > 100 µM (inactive) | > 100 µM (inactive) | > 100 µM (inactive) | > 100 µM (inactive) | > 100 µM (inactive) | > 100 µM (inactive) | > 100 µM (inactive) | > 100 µM (inactive) | > 100 µM (inactive) | – | > 100 µM (inactive) | – | > 100 µM (inactive) | > 100 µM (inactive) | > 100 µM (inactive) | > 100 µM (inactive) | –
Cc1cc(=O)n2c3c(c4c(cc13)c(CO)cc(=O)n4C)OC2 | 12.6 µM (inactive) | 30.7 µM (inactive) | 9.46 µM (inactive) | 64.4 µM (inactive) | 34.8 µM (inactive) | 6.85 µM (inactive) | 4.94 µM (inactive) | 11.8 µM (inactive) | 16.5 µM (inactive) | 32.1 µM (inactive) | 8.18 µM (inactive) | 7.73 µM (inactive) | 19.9 µM (inactive) | 11.8 µM (inactive) | 6.14 µM (inactive) | 4.45 µM (inactive) | –
COc1cccc2c1OC1Sc3ccccc3-c3nn(-c4ccccc4)c-2c31 (stereo not given) | > 100 µM (inactive) | – | > 100 µM (inactive) | > 100 µM (inactive) | > 100 µM (inactive) | > 100 µM (inactive) | 26.7 µM (inactive) | > 100 µM (inactive) | > 100 µM (inactive) | > 100 µM (inactive) | > 100 µM (inactive) | > 100 µM (inactive) | > 100 µM (inactive) | > 100 µM (inactive) | > 100 µM (inactive) | > 100 µM (inactive) | –
CN(C(=N)c1ccccc1)c1ccccc1 | > 100 µM (inactive) | – | > 100 µM (inactive) | > 100 µM (inactive) | > 100 µM (inactive) | 84.7 µM (inactive) | – | > 100 µM (inactive) | – | > 100 µM (inactive) | – | > 100 µM (inactive) | 47.6 µM (inactive) | > 100 µM (inactive) | > 100 µM (inactive) | > 100 µM (inactive) | –
